Reference: patent US4757079A, “Anti-hypertensive piperidine compounds” (Dynamac Corporaton, priority 1986, dated 1988)
Where a name gives a salt, the structure may show the parent alone.

Assays:
cat [1] = assay: blood pressure and heart rate in the cat (i.v.); type: in vivo
[2] = test system: rat hemidiaphragm preparation; assay: rat hemidiaphragm preparation, perfusate volume (vasodilatory effect)
cat [3] = assay: heart rate and mean blood pressure in cats pretreated with hexamethonium and atropine; type: in vivo; conditions: compared with absence of the blocking agents
guinea pig ileum = assay: anticholinergic activity on the guinea pig ileum
[4] = test system: peripheral muscarinic receptors; assay: response to vagal stimulation or to exogenous acetylcholine in the cat; type: in vivo; conditions: 1 to 10 mg/kg i.v.
nictitating membrane = assay: responsiveness of the nictitating membrane to pre- or post-ganglionic stimulation in the cat; type: in vivo; conditions: 1 to 10 mg/kg i.v.
neuromuscular function = assay: neuromuscular twitch response in the cat; type: in vivo

Question: Which “Heart Rate” value (cat [1]; 5.0 mg/kg i.v., cat) does the source give for `CN1CCC(/C=C/c2cccc3ccccc23)CC1` [B-120, 1-methyl-4-(1-naphthylvinyl)piperidine hydrochloride] here?
Answer: Its value is 90 % Control.

Question: What about the “Mean Blood Pressure” value (cat [1]; 5.0 mg/kg i.v., cat) of the same compound?
Answer: Its value is 60 % Control.

Question: What about the “Pulse Pressure” value (cat [1]; 5.0 mg/kg i.v., cat) of the same compound?
Answer: The value was 110 % Control.

Question: What about the “Heart Rate” value (cat [1]; 10.0 mg/kg i.v., cat) of the same compound?
Answer: The value was 80 % Control.

Question: And the “Mean Blood Pressure” value (cat [1]; 10.0 mg/kg i.v., cat)?
Answer: The value was 30 % Control.

Question: And the “Pulse Pressure” value (cat [1]; 10.0 mg/kg i.v., cat)?
Answer: Its value is 70 % Control.

Question: What about the heart rate rhythm (cat [1]; 50 mg/kg i.v., cat) of the same compound?
Answer: Its heart rate rhythm is “did not show evidence of abnormal rhythm”.

Question: And the “Heart Rate” value (cat [1]; 50.0 mg/kg i.v., cat)?
Answer: Its value is 0 % Control.

Question: And the “Mean Blood Pressure” value (cat [1]; 50.0 mg/kg i.v., cat)?
Answer: The value was 0 % Control.

Question: And the “Pulse Pressure” value (cat [1]; 50.0 mg/kg i.v., cat)?
Answer: The value was 0 % Control.

Question: What about the Heart Rate (cat [1]; 0.5 to 50 mg/kg i.v., cat) of the same compound?
Answer: Its Heart Rate is “dose-related decrease”.

Question: And the Mean Blood Pressure (cat [1]; 0.5 to 50 mg/kg i.v., cat)?
Answer: Its Mean Blood Pressure is “dose-related decrease”.

Question: And the “diastolic versus systolic blood pressure” value (cat [1]; 0.5 to 50 mg/kg i.v., cat)?
Answer: The value was “greater decrease in diastolic than systolic blood pressure”.

Question: What about the death (cat [1]; in vivo) of the same compound?
Answer: The death was “death appeared to be caused by hypotensive crisis”.

Question: What about the “increase in perfusate volume” value ([2]; 17.5 mg/L) of the same compound?
Answer: Its value is “not significant”.

Question: What about the “perfusate volume after removal of the B-120” value ([2]; after 35 mg/L) of the same compound?
Answer: Its value is “returned to normal”.

Question: What about the “reduction in heart rate” value (cat [3]) of the same compound?
Answer: Its value is “comparable to that induced in the absence of the blocking agents”.

Question: And the “reduction in mean blood pressure” value (cat [3])?
Answer: The value was “comparable to that induced in the absence of the blocking agents”.

Question: And the anticholinergic activity (guinea pig ileum)?
Answer: Its anticholinergic activity is “essentially devoid of anticholinergic activity”.

Question: What about the “anticholinergic potency on a relative scale vs atropine sulfate” value (guinea pig ileum; relative to atropine sulfate) of the same compound?
Answer: The value was 5.5×10^-4.

Question: What about the “response to exogenous acetylcholine” value [4] of the same compound?
Answer: Its value is “did not alter the response”.

Question: What about the “response to vagal stimulation” value [4] of the same compound?
Answer: Its value is “did not alter the response”.

Question: What about the “responsiveness of the nictitating membrane to pre- or post-ganglionic stimulation” value (nictitating membrane) of the same compound?
Answer: The value was “did not diminish the responsiveness”.

Question: And the neuromuscular twitch response (neuromuscular function)?
Answer: The neuromuscular twitch response was “no significant decrease”.
